For assay [1], the system named is KARPAS-231 (B-Cell Non-Hodgkin's Lymphoma). The experiment in a line: combination Emax (second highest fraction inhibited in the dose matrix, 72 h); higher = more inhibition; extreme values may be limits of the assay. The procedure, abridged: (§1)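 After 24 hours at 37°C and 5% CO2 in 1536-well plates, cells in DMEM/F12 or RPMI plus 10% FBS received two-drug dose matrices for 72 hours. Viability came from CellTiter-Glo 2.0 luminescence and was scaled as inhibition, anchored at 0 by vehicle wells and at 1 by blank wells. Combination Emax is taken as the second-highest inhibition in the matrix, and Bliss excess as the observed combination effect less EA + EB − EA·EB, with EA and EB the single-agent effects.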

The test system of assay [2] is UMC-11 (Other Solid Carcinomas). Described as above. The procedure, abridged: as §1
In assay [3] the test system is OVCAR-8 (Ovarian Carcinoma). Described as above. In a few lines: as §1
The test system of assay [4] is NCI-H747 (Colorectal Carcinoma). Described as above. The procedure, abridged:
as §1

Assay [5] relates to COLO-829 (Melanoma). The assay is described as above. In a few lines: as §1
Assay [6] has as its system LB771-HNC (Head and Neck Carcinoma). The description is as above. In a few lines: as §1
The subject of assay [7] is HCC-15 (Squamous Cell Lung Carcinoma). Described as above. In a few lines: as §1
For assay [8], the system named is KYSE-410 (Esophageal Squamous Cell Carcinoma). The experiment in a line: Bliss excess, mean over the matrix (fraction); higher = more synergy. In a few lines:
as §1

In assay [9] the test system is MHH-PREB-1 (B-Cell Non-Hodgkin's Lymphoma). The assay is described as above. In a few lines: as §1
Assay [10] deals with TE-4 (Esophageal Squamous Cell Carcinoma). Described as above. In a few lines:
as §1

Assay [11] concerns KARPAS-231 (B-Cell Non-Hodgkin's Lymphoma). The assay is described as above. In a few lines:
as §1

Assay [12] relates to UMC-11 (Other Solid Carcinomas). The description is as above. In a few lines: as §1
The subject of assay [13] is OVCAR-8 (Ovarian Carcinoma). The assay is described as above. The procedure, abridged: as §1
The test system of assay [14] is NCI-H747 (Colorectal Carcinoma). The description is as above. In a few lines:
as §1

Assay [15] relates to COLO-829 (Melanoma). The assay is described as above. In a few lines:
as §1

Assay [16] has as its system LB771-HNC (Head and Neck Carcinoma). The assay is described as above. The procedure, abridged:
as §1

The subject of assay [17] is SW626 (Colorectal Carcinoma). The description is as above. In a few lines: as §1
The test system of assay [18] is CTB-1 (B-Cell Non-Hodgkin's Lymphoma). Described as above. In a few lines:
as §1

Assay [19] has as its system CAL-51 (Breast Carcinoma). The description is as above. The procedure, abridged:
as §1

The test system of assay [20] is HCC-15 (Squamous Cell Lung Carcinoma). The description is as above. In a few lines:
as §1

Regarding `CN(CCO)CC[C@H](CSc1ccccc1)Nc1ccc(S(=O)(=O)NC(=O)c2ccc(N3CCC([C@@H](O)c4ccccc4-c4ccc(Cl)cc4)CC3)cc2)cc1S(=O)(=O)C(F)(F)F` [AZD4320] + C[C@@H](Nc1cc(F)cc(F)c1)c1cc(C(=O)N(C)C)cc2c(=O)cc(N3CCOCC3)oc12 [AZD8186] (first compound max 1 µM, 7x7, partner max 3 µM), the “combination Emax” value was determined as 1 in [1]; 0.375 in [2]; 0.57 in assay [3]; 0.511 in assay [4]; 0.277 with COLO-829 (Melanoma) [5]; 0.264 in [6]. The “combination Emax” value in assay [7] is 0.96. Also, the Bliss excess in assay [8] is 0.0209; in assay [9], 0.0355; in assay [10], 0.0296; in assay [11] it was 0.0269; in [12], -0.0356; in assay [13] it was 0.0245. For the same molecule, the Bliss excess in assay [14] is -0.0282; in the assay on COLO-829 (Melanoma) [15] it was 0.0015; in [16], 0.0095; in [17], -0.0203; in assay [18], 0.0266; in assay [19], 0.0283. In addition, the Bliss excess in [20] came out at 0.0764.

Values taken from the supplement of paper PMC11061612.
